# From US20090269403A1, “ORAL CONTRACEPTIVE DOSAGE FORMS AND METHODS OF MAKING SUCH DOSAGE FORMS” (priority 2008, published 2009)
# Columns and labels:
# [1] = Drug release from enteric-coated drospirenone/ethinylestradiol tablets (USP Type II paddle dissolution); format: physicochemical; conditions: Example 19 enteric-coated tablets, second test run, 75 rpm, 37° C.
# Protocol: The rate at which the tablets release the drospirenone and ethinylestradiol was determined. Each tablet was placed in 0.1 N HCl and stirred for 2 hours. After this time, the pH of each of the mixtures containing the tablets was adjusted to pH 6.8 with phosphate buffer and stirred for 4 hours using a USP Type II paddle apparatus at 75 rpm and 37° C. A second test run gave the results listed below in Table 12. A graph of the drug release profiles for the second test run is depicted in FIG. 4.
# [2] = water at various pH values; cited from earlier work
# [3] = acidic conditions (such as encountered in the gastric environment); cited from earlier work
structure (smiles),measurement,setting,value
"C[C@]12CCC(=O)C=C1[C@@H]1C[C@@H]1[C@H]1[C@@H]3[C@@H]4C[C@@H]4[C@@]4(CCC(=O)O4)[C@@]3(C)CC[C@@H]12 [Drospirenone, 6β,7β,15β, 16β-dimethylene-3-oxo-17a-pregn-4-ene-21,17-carbolactone]","Average % Drug Release (n = 6), 5 min","[1]; 5 min, in 0.1 N HCl",0.0%
same,"Average % Drug Release (n = 6), 120 min","[1]; 120 min, end of 2 hours in 0.1 N HCl",0.0%
same,"Average % Drug Release (n = 6), 130 min","[1]; 130 min, 2 hours 0.1 N HCl, then pH 6.8 phosphate buffer",29.1%
same,"Average % Drug Release (n = 6), 140 min","[1]; 140 min, 2 hours 0.1 N HCl, then pH 6.8 phosphate buffer",108.4%
same,"Average % Drug Release (n = 6), 150 min","[1]; 150 min, 2 hours 0.1 N HCl, then pH 6.8 phosphate buffer",105.4%
same,"Average % Drug Release (n = 6), 165 min","[1]; 165 min, 2 hours 0.1 N HCl, then pH 6.8 phosphate buffer",105.2%
same,"Average % Drug Release (n = 6), 180 min","[1]; 180 min, 2 hours 0.1 N HCl, then pH 6.8 phosphate buffer",105.0%
same,"Average % Drug Release (n = 6), 240 min","[1]; 240 min, 2 hours 0.1 N HCl, then pH 6.8 phosphate buffer",103.9%
same,"Average % Drug Release (n = 6), 300 min","[1]; 300 min, 2 hours 0.1 N HCl, then pH 6.8 phosphate buffer",102.5%
same,solubility in water,[2],only sparingly soluble in water
same,stability under acidic conditions,[3],undergoes isomerization to a form that is inactive
